From PubChem BioAssay AID977614 (Broad Institute, 2014)
Activity calls are given as the source filed them.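 How the source made its calls: active means parasite count per well reduced by over 3 SD from the mean, with host cell number above 80% of untreated; inactive means the rest.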

Tested on: L. donovani amastigotes in THP-1 macrophages, DAPI imaging, 72 h
Assay: antileishmanial activity in infected macrophages – imaging, THP-1 host macrophages, single concentration (AID 977614);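 further: signal is the parasite per host cell ratio from DAPI stained kinetoplasts and nuclei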

| Structure (SMILES) | AC50 |
| --- | --- |
| Cc1noc(C)c1NC(=O)N(C)C[C@H]1OCc2cnnn2CCCC(=O)N([C@H](C)CO)C[C@H]1C | > 10 µM (inactive) |
| COc1cccc(NC(=O)N2[C@H](CO)[C@H](c3ccccc3)[C@H]2CNCC(C)C)c1 | > 10 µM (inactive) |
| CC(=O)N1[C@H](CO)[C@@H](c2ccccc2)[C@H]1CNC(=O)CN1CCOCC1 | > 10 µM (inactive) |
| CCCNC(=O)N1[C@H](CO)[C@H](c2ccc(-c3ccc(C#N)cc3)cc2)[C@@H]1CNC | > 10 µM (inactive) |
| COc1cccc(NC(=O)N2[C@@H](CO)[C@@H](c3ccccc3)[C@@H]2CNCC(C)C)c1 | > 10 µM (inactive) |
| COc1ccc(CN2[C@H](CO)[C@@H]3c4ccccc4N(C(=O)NC(C)C)C[C@@H]32)cc1 | > 10 µM (inactive) |
| C[C@H](CO)N1C[C@H](C)[C@@H](CN(C)C(=O)Nc2ccccc2C(F)(F)F)OCc2cnnn2CCCC1=O | > 10 µM (inactive) |
| OC[C@@H]1[C@H](c2ccc(-c3ccc(F)cc3)cc2)[C@@H](CNC2CCCC2)N1CCC(F)(F)F | > 10 µM (inactive) |
| C[C@@H]1CN([C@@H](C)CO)C(=O)CCCn2nncc2CO[C@@H]1CN(C)C(=O)Nc1ccccc1C(F)(F)F | > 10 µM (inactive) |
| C[C@H](CO)N1C[C@H](C)[C@H](CN(C)Cc2ccc3cccnc3c2)OCc2cnnn2CCCC1=O | > 10 µM (inactive) |
| CC(C)N(C[C@H]1[C@H](c2ccccc2)[C@H](CO)N1S(C)(=O)=O)C(=O)CN(C)C | > 10 µM (inactive) |
| C[C@@H]1CN([C@H](C)CO)C(=O)CCCn2nncc2CO[C@@H]1CN(C)S(=O)(=O)c1cn(C)cn1 | > 10 µM (inactive) |
| O=C(c1ccccc1F)N1C[C@H]2[C@@H](c3ccccc31)[C@@H](CO)N2C(=O)Nc1ccccc1 | > 10 µM (inactive) |
| C[C@H](CO)N1C[C@H](C)[C@H](CN(C)C(=O)NC2CCCCC2)OCc2cn(nn2)CCCC1=O | > 10 µM (inactive) |
| CN(C[C@H]1[C@@H](c2ccccc2)[C@H](CO)N1Cc1ccccn1)S(C)(=O)=O | > 10 µM (inactive) |
| O=C(NC[C@H]1[C@H](c2ccccc2)[C@@H](CO)N1C(=O)Cc1ccncc1)C1CCC1 | > 10 µM (inactive) |
| O=C(NC[C@@H]1[C@@H](c2ccccc2)[C@H](CO)N1C(=O)C1CCC1)NC1CCCC1 | > 10 µM (inactive) |
| O=C(Nc1ccc(F)cc1)N1C[C@@H]2[C@H](c3ccccc31)[C@@H](CO)N2C(=O)c1ccncc1 | > 10 µM (inactive) |
| C[C@@H]1CN([C@H](C)CO)C(=O)CCCn2nncc2CO[C@@H]1CN(C)S(=O)(=O)c1ccc(Oc2ccccc2)nc1 | > 10 µM (inactive) |
| C[C@@H]1CN([C@H](C)CO)C(=O)CCCn2nncc2CO[C@@H]1CN(C)C(=O)c1ccc(N2CCN(C)CC2)cc1 | > 10 µM (inactive) |
| CC(=O)N1[C@H](CO)[C@@H](c2ccccc2)[C@H]1CN(C)S(=O)(=O)c1ccccc1 | > 10 µM (inactive) |
| CCC(=O)N1[C@H](CO)[C@H](c2ccc(-c3cncnc3)cc2)[C@@H]1CN(C)C(C)=O | > 10 µM (inactive) |
| CCC(=O)NC[C@@H]1[C@@H](c2ccc(-c3ccc(F)cc3)cc2)[C@@H](CO)N1C(=O)CC | > 10 µM (inactive) |
| C/C=C/c1ccc([C@H]2[C@@H](CO)N[C@@H]2CN(CC)C(=O)CN2CCOCC2)cc1 | > 10 µM (inactive) |
| CCNC[C@@H]1[C@H](c2ccccc2)[C@@H](CO)N1C(=O)Cc1ccccn1 | > 10 µM (inactive) |
| CCCNC(=O)N1[C@H](CNC(=O)c2cccc(F)c2)[C@@H](c2ccccc2)[C@@H]1CO | > 10 µM (inactive) |

| Structure (SMILES) | AC50 |
| --- | --- |
| C[C@@H]1CN([C@@H](C)CO)C(=O)CCCn2nncc2CO[C@@H]1CN(C)S(=O)(=O)c1ccccc1C#N | > 10 µM (inactive) |
| CCCNC(=O)N1[C@H](CO)[C@@H]2c3ccccc3N(C(=O)c3ccncc3)C[C@@H]21 | > 10 µM (inactive) |
| C[C@H](CO)N1C[C@H](C)[C@H](CN(C)Cc2ccccc2)OCc2cn(nn2)CCCC1=O | > 10 µM (inactive) |
| O=C(CN1CCOCC1)N1[C@H](CO)[C@H]2c3ccccc3NC[C@H]21 | > 10 µM (inactive) |
| O=S(=O)(c1ccccc1)N1C[C@@H]2[C@H](c3ccccc31)[C@H](CO)N2Cc1ccccn1 | > 10 µM (inactive) |
| O=C(CC(F)(F)F)N1C[C@@H]2[C@H](c3ccccc31)[C@@H](CO)N2CC1CCOCC1 | > 10 µM (inactive) |
| C[C@H]1CN([C@@H](C)CO)C(=O)CCCn2cc(nn2)CO[C@H]1CN(C)C(=O)c1ccc(N2CCN(C)CC2)cc1 | > 10 µM (inactive) |
| CCCNC(=O)N1C[C@@H]2[C@H](c3ccccc31)[C@H](CO)N2Cc1cccc(OC)c1 | > 10 µM (inactive) |
| COc1cccc(C(=O)N2C[C@H]3[C@@H](c4ccccc42)[C@H](CO)N3C(=O)c2cccc(F)c2)c1 | > 10 µM (inactive) |
| O=S(=O)(NC[C@@H]1[C@H](c2ccccc2)[C@@H](CO)N1CC1CC1)c1ccccc1 | > 10 µM (inactive) |
| COCC(=O)NC[C@H]1[C@H](c2ccccc2)[C@H](CO)N1C(=O)c1ccccc1 | > 10 µM (inactive) |
| O=C(c1ccc2c(c1)OCO2)N1C[C@H]2[C@@H](c3ccccc31)[C@H](CO)N2C(=O)CC1CC1 | > 10 µM (inactive) |
| CCC(=O)N1[C@H](CO)[C@@H](c2ccccc2)[C@@H]1CN(C)C(=O)CN1CCOCC1 | > 10 µM (inactive) |
| CCN(C[C@H]1N[C@H](CO)[C@@H]1c1ccccc1)C(=O)c1ccncc1 | > 10 µM (inactive) |
| C/C=C/c1ccc([C@@H]2[C@@H](CN(CC)C(C)=O)N(Cc3cccnc3)[C@H]2CO)cc1 | > 10 µM (inactive) |
| Cc1cccc(S(=O)(=O)N2C[C@H]3[C@@H](c4ccccc42)[C@H](CO)N3Cc2ccc3c(c2)OCO3)c1 | > 10 µM (inactive) |
| CC(=O)N1[C@H](CO)[C@@H](c2ccccc2)[C@@H]1CNC(=O)CN1CCOCC1 | > 10 µM (inactive) |
| CCNC[C@@H]1[C@@H](c2ccc(-c3ccc(F)cc3)cc2)[C@@H](CO)N1C(=O)C1CC1 | > 10 µM (inactive) |
| C[C@H](CO)N1C[C@H](C)[C@H](CN(C)S(=O)(=O)c2ccc(-n3cccn3)cc2)OCc2cn(nn2)CCCC1=O | > 10 µM (inactive) |
| C[C@H]1CN([C@@H](C)CO)C(=O)CCCn2cc(nn2)CO[C@@H]1CN(C)S(=O)(=O)c1cccc(C#N)c1 | > 10 µM (inactive) |
| COCC(=O)N1[C@@H]2CN(C)c3ccccc3[C@@H]2[C@@H]1CO | > 10 µM (inactive) |
| C[C@H](CO)N1C[C@H](C)[C@H](CN(C)C(=O)Nc2ccccc2C(F)(F)F)OCc2cnnn2CCCC1=O | > 10 µM (inactive) |
| C[C@H]1CN([C@@H](C)CO)C(=O)CCCn2cc(nn2)CO[C@H]1CN(C)S(=O)(=O)c1cccc(C#N)c1 | > 10 µM (inactive) |
| O=C(Nc1cccc(F)c1)N1C[C@@H]2[C@H](c3ccccc31)[C@H](CO)N2C(=O)Cc1ccccn1 | > 10 µM (inactive) |
| OC[C@H]1[C@H]2c3ccccc3NC[C@H]2N1Cc1cccnc1 | > 10 µM (inactive) |
| C[C@H](CO)N1C[C@H](C)[C@H](CN(C)C(=O)c2ccc(N3CCN(C)CC3)cc2)OCc2cnnn2CCCC1=O | > 10 µM (inactive) |

| Structure (SMILES) | AC50 |
| --- | --- |
| CCS(=O)(=O)N(C)C[C@@H]1N[C@H](CO)[C@@H]1c1ccc(C2=CCCCC2)cc1 | > 10 µM (inactive) |
| Cc1noc(C)c1S(=O)(=O)N(C)C[C@@H]1OCc2cn(nn2)CCCC(=O)N([C@H](C)CO)C[C@@H]1C | > 10 µM (inactive) |
| CCC(=O)N1[C@H](CO)[C@H]2c3ccccc3N(S(=O)(=O)c3ccc(F)cc3)C[C@H]21 | > 10 µM (inactive) |
| Cc1cccc(S(=O)(=O)N2C[C@@H]3[C@H](c4ccccc42)[C@@H](CO)N3CC2CCCC2)c1 | > 10 µM (inactive) |
| C/C=C/c1ccc([C@H]2[C@@H](CNC(C)C)N(C(=O)c3ccccn3)[C@H]2CO)cc1 | > 10 µM (inactive) |
| COCC(=O)N1C[C@@H]2[C@H](c3ccccc31)[C@H](CO)N2C(=O)c1ccccc1F | > 10 µM (inactive) |
| CNC[C@@H]1OCc2cnnn2CCCC(=O)N([C@H](C)CO)C[C@H]1C | > 10 µM (inactive) |
| O=C(C1CCCCC1)N1[C@H](CO)[C@@H]2c3ccccc3NC[C@@H]21 | > 10 µM (inactive) |
| O=C(c1ccc2c(c1)OCO2)N1C[C@H]2[C@@H](c3ccccc31)[C@@H](CO)N2Cc1cccnc1 | > 10 µM (inactive) |
| C[C@@H]1CN([C@@H](C)CO)C(=O)CCCn2nncc2CO[C@@H]1CN(C)C(=O)c1ccc2ccn(C)c2c1 | > 10 µM (inactive) |
| O=C(C1CC1)N1C[C@H]2[C@@H](c3ccccc31)[C@@H](CO)N2C(=O)c1ccccc1 | > 10 µM (inactive) |
| C/C=C/c1ccc([C@H]2[C@@H](CO)N(C(=O)C3CC3)[C@@H]2CNC(=O)NC(C)C)cc1 | > 10 µM (inactive) |
| CCCNC(=O)N1C[C@@H]2[C@H](c3ccccc31)[C@H](CO)N2C(=O)Nc1ccccc1F | > 10 µM (inactive) |
| COc1ccc(CN(C)C[C@@H]2OCc3cnnn3CCCC(=O)N([C@H](C)CO)C[C@H]2C)cc1 | > 10 µM (inactive) |
| C[C@@H]1CN([C@@H](C)CO)C(=O)CCCn2nncc2CO[C@H]1CN(C)Cc1ccc2cccnc2c1 | > 10 µM (inactive) |
| CCCC#Cc1ccc([C@H]2[C@@H](CO)N(C(=O)NC(C)C)[C@H]2CNC(C)=O)cc1 | > 10 µM (inactive) |
| O=C(NC[C@H]1N[C@H](CO)[C@@H]1c1ccccc1)c1ccccc1F | > 10 µM (inactive) |
| Cc1noc(C)c1S(=O)(=O)N(C)C[C@H]1OCc2cn(nn2)CCCC(=O)N([C@@H](C)CO)C[C@@H]1C | > 10 µM (inactive) |
| C[C@H](CO)N1C[C@H](C)[C@@H](CN(C)Cc2cccc3c2OCCCO3)OCc2cnnn2CCCC1=O | > 10 µM (inactive) |
| COc1ccc(NC(=O)N2C[C@@H]3[C@H](c4ccccc42)[C@H](CO)N3Cc2ccccn2)cc1 | > 10 µM (inactive) |
| C[C@@H]1CN([C@H](C)CO)C(=O)CCCn2cc(nn2)CO[C@@H]1CN(C)C(=O)NC1CCCCC1 | > 10 µM (inactive) |
| C[C@@H]1CN([C@H](C)CO)C(=O)CCCn2nncc2CO[C@H]1CN(C)S(=O)(=O)c1ccccc1C#N | > 10 µM (inactive) |
| COCCNC[C@H]1[C@H](c2ccccc2)[C@H](CO)N1c1nc(C)c(C)s1 | > 10 µM (inactive) |
| O=C(NC[C@@H]1[C@H](c2ccccc2)[C@H](CO)N1C(=O)C1CCC1)NC1CCCC1 | > 10 µM (inactive) |
